Measured values as given in US11053204B2, “Pyrimidinyloxy benzene derivatives as herbicides” (FMC Corporation, priority 2015, dated 2021).

Columns and labels:
Format in all cases: in vivo
[1] = tested on: soybean (Glycine max); test: Test C postemergence, plant response rating; settings: for Plant response rating, Soybean: scale 0 to 100; for Soybean plant response rating: scale 0 to 100 (0 no effect, 100 complete control)
In short: (§1)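 Greenhouse plants rated visually against untreated controls 13–15 d after treatment, scale 0 = no effect to 100 = complete control. Postemergence sprays went onto potted plants 2–18 cm tall (1–4 leaves); preemergence sprays onto soil freshly sown in loam–sand or silt loam, chemicals formulated in non-phytotoxic solvent with surfactant.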

[2] = tested on: kochia (Kochia scoparia); test: Test C postemergence, plant response rating; settings: for Plant response rating, Kochia: scale 0 to 100; for Kochia plant response rating: scale 0 to 100 (0 no effect, 100 complete control)
In short: as §1

[3] = tested on: oilseed rape (Brassica napus); test: Test C postemergence, plant response rating; settings: for Plant response rating, Oilseed Rape: scale 0 to 100; for Oilseed Rape plant response rating: scale 0 to 100 (0 no effect, 100 complete control)
In short: as §1

[4] = tested on: waterhemp (common waterhemp, Amaranthus rudis); test: Test C postemergence, plant response rating; settings: for Plant response rating, Waterhemp: scale 0 to 100; for Waterhemp plant response rating: scale 0 to 100 (0 no effect, 100 complete control)
In short: as §1

[5] = tested on: corn (Zea mays); test: Test C postemergence, plant response rating; settings: for Plant response rating, Corn: scale 0 to 100; for Corn plant response rating: scale 0 to 100 (0 no effect, 100 complete control)
In short: as §1

[6] = tested on: crabgrass, large (large crabgrass, Digitaria sanguinalis); test: Test C postemergence, plant response rating; settings: for Plant response rating, Crabgrass, Large: scale 0 to 100; for Crabgrass, Large plant response rating: scale 0 to 100 (0 no effect, 100 complete control)
In short: as §1

[7] = tested on: galium (catchweed bedstraw, Galium aparine); test: Test C postemergence, plant response rating; settings: for Plant response rating, Galium: scale 0 to 100; for Galium plant response rating: scale 0 to 100 (0 no effect, 100 complete control)
In short: as §1

[8] = tested on: foxtail, giant (giant foxtail, Setaria faberii); test: Test C postemergence, plant response rating; settings: for Plant response rating, Foxtail, Giant: scale 0 to 100; for Foxtail, Giant plant response rating: scale 0 to 100 (0 no effect, 100 complete control)
In short: as §1

[9] = tested on: velvetleaf (Abutilon theophrasti); test: Test C preemergence, plant response rating; settings: Preemergence
In short: as §1

[10] = tested on: morningglory (Ipomoea coccinea); test: Test C preemergence, plant response rating; settings: Preemergence
In short: as §1

[11] = tested on: soybean (Glycine max); test: Test C preemergence, plant response rating; settings: Preemergence
In short: as §1

[12] = tested on: nutsedge, yellow (yellow nutsedge, Cyperus esculentus); test: Test C preemergence, plant response rating; settings: Preemergence
In short: as §1

[13] = tested on: oilseed rape (Brassica napus); test: Test C preemergence, plant response rating; settings: Preemergence
In short: as §1

[14] = tested on: waterhemp (common waterhemp, Amaranthus rudis); test: Test C preemergence, plant response rating; settings: Preemergence
In short: as §1

[15] = tested on: wheat (winter wheat, Triticum aestivum); test: Test C preemergence, plant response rating; settings: Preemergence
In short: as §1

[16] = tested on: corn (Zea mays); test: Test C preemergence, plant response rating; settings: Preemergence
In short: as §1

[17] = tested on: ryegrass, Italian (Italian ryegrass, Lolium multiflorum); test: Test C preemergence, plant response rating; settings: Preemergence
In short: as §1

[18] = tested on: blackgrass (Alopecurus myosuroides); test: Test C preemergence, plant response rating; settings: Preemergence
In short: as §1

[19] = tested on: crabgrass, large (large crabgrass, Digitaria sanguinalis); test: Test C preemergence, plant response rating; settings: Preemergence
In short: as §1

[20] = tested on: lambsquarters (Chenopodium album); test: Test C preemergence, plant response rating; settings: Preemergence
In short: as §1

[21] = tested on: foxtail, giant (giant foxtail, Setaria faberii); test: Test C preemergence, plant response rating; settings: Preemergence
In short: as §1

## O=C(OCCC(F)(F)F)c1c(Br)cccc1Oc1ncc(Br)cn1 [Compound 33]
[1]; 16 g ai/ha
  Plant response rating, Soybean: 25
[1]; 31 g ai/ha
  Plant response rating, Soybean: 65
[1]; 62 g ai/ha
  Soybean plant response rating: 30
[1]; 125 g ai/ha
  Soybean plant response rating: 55
[2]; 16 g ai/ha
  Plant response rating, Kochia: 90
[2]; 31 g ai/ha
  Plant response rating, Kochia: 95
[2]; 62 g ai/ha
  Kochia plant response rating: 95
[2]; 125 g ai/ha
  Kochia plant response rating: 95
[3]; 16 g ai/ha
  Plant response rating, Oilseed Rape: 35
[3]; 31 g ai/ha
  Plant response rating, Oilseed Rape: 45
[3]; 62 g ai/ha
  Oilseed Rape plant response rating: 55
[3]; 125 g ai/ha
  Oilseed Rape plant response rating: 95
[4]; 16 g ai/ha
  Plant response rating, Waterhemp: 90
[4]; 31 g ai/ha
  Plant response rating, Waterhemp: 80
[4]; 62 g ai/ha
  Waterhemp plant response rating: 100
[4]; 125 g ai/ha
  Waterhemp plant response rating: 100
[5]; 16 g ai/ha
  Plant response rating, Corn: 20
[5]; 31 g ai/ha
  Plant response rating, Corn: 25
[5]; 62 g ai/ha
  Corn plant response rating: 25
[5]; 125 g ai/ha
  Corn plant response rating: 30
[6]; 16 g ai/ha
  Plant response rating, Crabgrass, Large: 5
[6]; 31 g ai/ha
  Plant response rating, Crabgrass, Large: 5
[6]; 62 g ai/ha
  Crabgrass, Large plant response rating: 10
[6]; 125 g ai/ha
  Crabgrass, Large plant response rating: 15
[7]; 16 g ai/ha
  Plant response rating, Galium: 50
[7]; 31 g ai/ha
  Plant response rating, Galium: 70
[7]; 62 g ai/ha
  Galium plant response rating: 80
[7]; 125 g ai/ha
  Galium plant response rating: 85
[8]; 16 g ai/ha
  Plant response rating, Foxtail, Giant: 5
[8]; 31 g ai/ha
  Plant response rating, Foxtail, Giant: 10
[8]; 62 g ai/ha
  Foxtail, Giant plant response rating: 10
[8]; 125 g ai/ha
  Foxtail, Giant plant response rating: 20
[9]; 125 g ai/ha, scale of 0 to 100
  Plant response rating, Velvetleaf: 100
[9]; 16 g ai/ha, scale 0 to 100
  Plant response rating, Velvetleaf: 5
[9]; 31 g ai/ha, scale 0 to 100
  Plant response rating, Velvetleaf: 30
[9]; 62 g ai/ha, scale 0 to 100
  Plant response rating, Velvetleaf: 55
[10]; 125 g ai/ha, scale of 0 to 100
  Plant response rating, Morningglory: 40
[10]; 16 g ai/ha, scale 0 to 100
  Plant response rating, Morningglory: 0
[10]; 31 g ai/ha, scale 0 to 100
  Plant response rating, Morningglory: 0
[10]; 62 g ai/ha, scale 0 to 100
  Plant response rating, Morningglory: 25
[11]; 125 g ai/ha, scale of 0 to 100
  Plant response rating, Soybean: 30
[11]; 16 g ai/ha, scale 0 to 100
  Plant response rating, Soybean: 15
[12]; 125 g ai/ha, scale of 0 to 100
  Plant response rating, Nutsedge, Yellow: 5
[12]; 16 g ai/ha, scale 0 to 100
  Plant response rating, Nutsedge, Yellow: 0
[12]; 31 g ai/ha, scale 0 to 100
  Plant response rating, Nutsedge, Yellow: 0
[12]; 62 g ai/ha, scale 0 to 100
  Plant response rating, Nutsedge, Yellow: 5
[13]; 125 g ai/ha, scale of 0 to 100
  Plant response rating, Oilseed Rape: 100
[13]; 16 g ai/ha, scale 0 to 100
  Plant response rating, Oilseed Rape: 50
[13]; 31 g ai/ha, scale 0 to 100
  Plant response rating, Oilseed Rape: 80
[13]; 62 g ai/ha, scale 0 to 100
  Plant response rating, Oilseed Rape: 85
[14]; 125 g ai/ha, scale of 0 to 100
  Plant response rating, Waterhemp: 100
[14]; 16 g ai/ha, scale 0 to 100
  Plant response rating, Waterhemp: 100
[14]; 31 g ai/ha, scale 0 to 100
  Plant response rating, Waterhemp: 100
[14]; 62 g ai/ha, scale 0 to 100
  Plant response rating, Waterhemp: 100
[15]; 125 g ai/ha, scale of 0 to 100
  Plant response rating, Wheat: 5
[15]; 16 g ai/ha, scale 0 to 100
  Plant response rating, Wheat: 0
[15]; 31 g ai/ha, scale 0 to 100
  Plant response rating, Wheat: 0
[15]; 62 g ai/ha, scale 0 to 100
  Plant response rating, Wheat: 0
[16]; 62 g ai/ha, scale of 0 to 100
  Plant response rating, Corn: 10
[16]; 125 g ai/ha, scale of 0 to 100
  Plant response rating, Corn: 10
[16]; 16 g ai/ha, scale 0 to 100
  Plant response rating, Corn: 0
[16]; 31 g ai/ha, scale 0 to 100
  Plant response rating, Corn: 0
[17]; 125 g ai/ha, scale of 0 to 100
  Plant response rating, Ryegrass, Italian: 85
[17]; 16 g ai/ha, scale 0 to 100
  Plant response rating, Ryegrass, Italian: 0
[17]; 31 g ai/ha, scale 0 to 100
  Plant response rating, Ryegrass, Italian: 30
[17]; 62 g ai/ha, scale 0 to 100
  Plant response rating, Ryegrass, Italian: 30
[18]; 62 g ai/ha, scale of 0 to 100
  Plant response rating, Blackgrass: 70
[18]; 125 g ai/ha, scale of 0 to 100
  Plant response rating, Blackgrass: 90
[18]; 16 g ai/ha, scale 0 to 100
  Plant response rating, Blackgrass: 0
[18]; 31 g ai/ha, scale 0 to 100
  Plant response rating, Blackgrass: 10
[19]; 62 g ai/ha, scale of 0 to 100
  Plant response rating, Crabgrass, Large: 100
[19]; 125 g ai/ha, scale of 0 to 100
  Plant response rating, Crabgrass, Large: 100
[19]; 16 g ai/ha, scale 0 to 100
  Plant response rating, Crabgrass, Large: 75
[19]; 31 g ai/ha, scale 0 to 100
  Plant response rating, Crabgrass, Large: 98
[20]; 125 g ai/ha, scale of 0 to 100
  Plant response rating, Lambsquarters: 85
[20]; 16 g ai/ha, scale 0 to 100
  Plant response rating, Lambsquarters: 25
[20]; 31 g ai/ha, scale 0 to 100
  Plant response rating, Lambsquarters: 60
[20]; 62 g ai/ha, scale 0 to 100
  Plant response rating, Lambsquarters: 80
[21]; 62 g ai/ha, scale of 0 to 100
  Plant response rating, Foxtail, Giant: 98
[21]; 125 g ai/ha, scale of 0 to 100
  Plant response rating, Foxtail, Giant: 100
[21]; 16 g ai/ha, scale 0 to 100
  Plant response rating, Foxtail, Giant: 60
[21]; 31 g ai/ha, scale 0 to 100
  Plant response rating, Foxtail, Giant: 95
